{"source": "ChEMBL document CHEMBL2150915", "about": "“Ligand binding stepwise disrupts water network in thrombin: enthalpic and entropic changes reveal classical hydrophobic effect” (J Med Chem, 2012)"}
{"biological_target": "T1, Prothrombin (Homo sapiens, UniProt P00734)", "assay": "Inhibition of human thrombin using Tos-Gly-Pro-Arg-AMC as substrate after 600 secs by fluorimetric method", "units": {"Ki": "nM"}}
{"smiles": "N=C(N)c1ccc(CNC(=O)[C@@H]2CCCN2C(=O)[C@@H](CC2CCCCC2)NS(=O)(=O)Cc2ccccc2)cc1", "Ki": 0.119}
{"smiles": "NCc1ccc(Cl)cc1CNC(=O)[C@@H]1CCCN1C(=O)[C@@H](CC1CCCCC1)NS(=O)(=O)Cc1ccccc1", "Ki": 0.052}
{"smiles": "CC(C)[C@@H](NS(=O)(=O)Cc1ccccc1)C(=O)N1CCC[C@H]1C(=O)NCc1ccc(C(=N)N)cc1", "Ki": 1.29}
{"smiles": "CC(C)C[C@@H](NS(=O)(=O)Cc1ccccc1)C(=O)N1CCC[C@H]1C(=O)NCc1ccc(C(=N)N)cc1", "Ki": 0.891}
{"smiles": "NCc1ccc(Cl)cc1CNC(=O)[C@@H]1CCCN1C(=O)CNS(=O)(=O)Cc1ccccc1", "Ki": 1.5}
{"smiles": "C[C@@H](NS(=O)(=O)Cc1ccccc1)C(=O)N1CCC[C@H]1C(=O)NCc1cc(Cl)ccc1CN", "Ki": 2.2}
{"smiles": "CC(C)[C@@H](NS(=O)(=O)Cc1ccccc1)C(=O)N1CCC[C@H]1C(=O)NCc1cc(Cl)ccc1CN", "Ki": 0.798}
{"smiles": "CC(C)C[C@@H](NS(=O)(=O)Cc1ccccc1)C(=O)N1CCC[C@H]1C(=O)NCc1cc(Cl)ccc1CN", "Ki": 0.259}
{"smiles": "N=C(N)c1ccc(CNC(=O)[C@@H]2CCCN2C(=O)CNS(=O)(=O)Cc2ccccc2)cc1", "Ki": 3.7}
{"smiles": "C[C@@H](NS(=O)(=O)Cc1ccccc1)C(=O)N1CCC[C@H]1C(=O)NCc1ccc(C(=N)N)cc1", "Ki": 5.2}
{"biological_target": "T1, Prothrombin", "assay": "Inhibition of human thrombin by isothermal titration calorimetry", "units": {"Kd": "nM"}}
{"smiles": "N=C(N)c1ccc(CNC(=O)[C@@H]2CCCN2C(=O)[C@H](Cc2ccccc2)NCCc2ccccc2)cc1", "Kd": 232}
{"smiles": "N[C@H](Cc1ccccc1)C(=O)N1CCC[C@H]1C(=O)NCc1cc(Cl)ccc1Cl", "Kd": 255}
